Experimental data from patent US20200197409A1, “HEPATITIS B VIRUS SURFACE ANTIGEN INHIBITOR” (FUJIAN COSUNTER PHARMACEUTICAL CO., LTD., priority 2017, published 2020).

Columns and labels:
[1] = Microsomal metabolism stability, rat; type: in vitro ADME; details: rat liver microsomes 0.5 mg/mL, 1 μM, NADPH, 37° C.
Description: The microsomal metabolism stability of the test compound (Embodiment 6) in three species was determined. 1 μM test compound and microsomes (0.5 mg/mL) supplemented with NADPH regeneration system were incubated at 37° C. The positive controls were testosterone (3A4 substrate), propafenone (2D6 substrate) and diclofenac (2C9 substrate), respectively. The positive control and microsomes (0.5 mg/mL) supplemented with NADPH regeneration system were incubated at 37° C. Samples at different time points (0, 5, 10, 20, 30, and 60 minutes) were mixed directly with cold acetonitrile containing an internal standard to terminate the reaction. The compound and microsomes were incubated for 60 minutes without the NADPH regeneration system. One parallel was set at each time point (n=1). The samples were analyzed by LC/MS/MS. The concentration of the compound was indicated by the ratio of the peak area of the analyte to the peak area of the internal standard.

HBV [2] = assay: In vivo pharmacodynamic study of hydrodynamic injection mouse HBV model (HDI-HBV) via tail vein; design: species or system Balb/c mice; details: mouse plasma
Description: Anti-hepatitis B virus activity of the compound of the embodiment in vivo was evaluated by HDI mice model.
Balb/c mice, 10% HP—F-CD as vehicle, test compound, RG7834, ETV (Entecavir), pAAV2-HBV 1.3mer plasmid (extracted with Qiagen EndoFree Plasmid Giga kit), main reagents including QIAamp96 DNA kit and FasStart Universal Probe Mast (ROX). The main instruments used in this experiment included centrifuge (Beckman Allegra X-15R), tissue grinder (QIAGEN-Tissue lyser II) and spectrophotometer (Thermo-NANODROP 1000).
b) On day 0, all mice were subjected to hydrodynamic injection with HBV plasmid DNA solution via tail vein. The plasmid DNA was pre-treated with sterile physiological saline before injection and stored at 4° C. until use. Plasmid DNA solution was injected via the tail vein at a dose of 8% of the body weight of the mouse within 5 seconds.
c) On the 1st day to the 7th day, the mice were administered with the compound or solvent by oral gavage for 7 days.
d) On the 1st day, 3rd day and 5th day, the blood was collected from the submandibular vein of the mice, and heparin sodium was used as an anticoagulant. The blood sample was centrifuged at 7,000×g, 4° C. to prepare the plasma for the determination of HBV DNA.
e) On the 7^h day, all mice were euthanized by CO2. The blood was collected from the heart to prepare plasma, and the liver tissue was collected. Two left hepatic lobe were isolated, the size of which was 70-100 mg, and were frozen by liquid nitrogen immediately after collection. One of the hepatic lobe was used for HBV DNA detection, and the other was used for backup.
The content of HBsAg in the serum of the mice was determined by ELISA (enzyme linked immunosorbent assay). The experimental procedure refers to the specification of HBsAg ELISA kit.
The inhibitory activity of the test compound on HBV replication on the mouse HDI model was determined by measuring the content of HBsAg in the plasma of the mice.

HBV [3] = assay: Anti-HBV activity on the hepatitis B virus mouse model (AAV-HBV); type: in vivo, C57BL/6 mice; details: for HBsAg content in the plasma of the mice: PO
Description: The AAV vector-mediated HBV infected mouse model is a fast and efficient HBV model. Using the high hepatotropism of the AAV vector, the recombinant adeno-associated type 8 virus carrying 1.3 copies of the HBV genome (rAAV8-1.3HBV) is injected into the tail vein of mice, which can efficiently introduce the carried 1.3 copy HBV genome into hepatocytes. Due to the characteristics of the AAV viral vector, the vector mediated by it can express for a long time. The AAV/HBV model can continuously replicate HBV DNA and express HBsAg and HBeAg in the liver of the mice.
The anti-HBV efficacy of the test compound in vivo was evaluated by determining the content of HBsAg in the serum of the mice after treatment with the test compound on AAV/HBV mouse mode.
C57BL/6 mice, 10% HP-f-CD as vehicle, reference compound TDF (Tenofovir), test compound, recombinant virus rAAVS-1.3HBV, main reagents of the experiment including QIAamp96 DNA kit and TaqMan® Universal PCR Master Mix, Hepatitis B Virus Surface Antigen Detection Kit, instruments including: centrifuge (Beckman Allegra X-15R), tissue grinder (QIAGEN-Tissue lyser II) and spectrophotometer (Thermo-NANODROP 1000).
a) All mice were orally administered on the 28th day after the virus injection, and the day was set as day 0. Submaxillary blood of all mice was collected for serum collection before administration. The mice were administered once a day for four weeks.
b) Submaxillary blood of all mice was collected for serum collection twice a week, the volume of the blood collected each time was approximately 100 μL.
c) On the 28th day, all mice were euthanized and the blood was collected from the heart for serum collection.
The content of HBsAg in the serum of the mice was determined by ELISA. The experimental procedure refers to the specification of HBsAg ELISA kit.
a) The anti-HBV activity of the test compound on AAV/HBV mice model was evaluated by determining the content of HBsAg in the plasma of the mice.

[4] = 14-day pre-toxicology tolerance test on rat; type: in vivo; details: once a day for 14 days, male rats
Description: [table] A total of 21 animals in this experiment were randomly divided into 7 groups. The animals were orally administered with the test compounds once a day for 14 consecutive days, and the toxicity was evaluated. Animal necropsy and tissue would be taken from the fixative, repaired, dehydrated, embedded, sectioned, stained and microscopically examined. These tissues included the liver, heart and lung of all animals, and spleen, stomach, duodenum, jejunum, ileum, and kidney of partial animals.

With `COCCCOc1cc2c(cc1OC)-c1cc(=O)c(C(=O)O)cn1[C@H](C(C)(C)C)CO2` [Embodiment 6] the “remaining ratio at T=60 min” value [1] was 113.0%, the “Log HBsAg (IU/mL) (Ave. value)” value (HBV [2]; dosing time day 1, 30 mg/kg QD gavage) was 3.86 IU/mL and the “Log HBsAg (IU/mL) (Ave. value)” value (HBV [2]; dosing time day 3, 30 mg/kg QD gavage) was 4.09 IU/mL. For the same molecule, the “Log HBsAg (IU/mL) (Ave. value)” value (HBV [2]; dosing time day 5, 30 mg/kg QD gavage) was 3.27 IU/mL, the “Log HBsAg (IU/mL) (Ave. value)” value (HBV [2]; dosing time day 7, 30 mg/kg QD gavage) was 1.07 IU/mL and the “effect on the content of HBsAg on the AAV/HBV mouse model (in words)” value (HBV [3]; 3, 10, 30 mg/kg PO once a day for four weeks) was “significantly reduce”. The “HBsAg content in the plasma of the mice” value (HBV [3]; day 4, 3 mg/kg) was 3.68 IU/mL, the “HBsAg content in the plasma of the mice” value (HBV [3]; day 4, 10 mg/kg) was 3.56 IU/mL and the “HBsAg content in the plasma of the mice” value (HBV [3]; day 4, 30 mg/kg) was 3.38 IU/mL. For the same molecule, the “HBsAg content in the plasma of the mice” value (HBV [3]; day 7, 3 mg/kg) was 3.70 IU/mL, the “HBsAg content in the plasma of the mice” value (HBV [3]; day 7, 10 mg/kg) was 3.69 IU/mL and the “HBsAg content in the plasma of the mice” value (HBV [3]; day 7, 30 mg/kg) was 3.44 IU/mL. For the same molecule, the “HBsAg content in the plasma of the mice” value (HBV [3]; day 11, 3 mg/kg) was 3.76 IU/mL, the “HBsAg content in the plasma of the mice” value (HBV [3]; day 11, 10 mg/kg) was 3.92 IU/mL and the “HBsAg content in the plasma of the mice” value (HBV [3]; day 11, 30 mg/kg) was 3.64 IU/mL. For the same molecule, the “HBsAg content in the plasma of the mice” value (HBV [3]; day 14, 3 mg/kg) was 3.70 IU/mL, the “HBsAg content in the plasma of the mice” value (HBV [3]; day 14, 10 mg/kg) was 3.61 IU/mL and the “HBsAg content in the plasma of the mice” value (HBV [3]; day 14, 30 mg/kg) was 3.40 IU/mL. The “HBsAg content in the plasma of the mice” value (HBV [3]; day 18, 3 mg/kg) was 3.85 IU/mL, the “HBsAg content in the plasma of the mice” value (HBV [3]; day 18, 10 mg/kg) was 3.90 IU/mL and the “HBsAg content in the plasma of the mice” value (HBV [3]; day 18, 30 mg/kg) was 3.55 IU/mL. For the same molecule, the “HBsAg content in the plasma of the mice” value (HBV [3]; day 21, 3 mg/kg) was 3.78 IU/mL, the “HBsAg content in the plasma of the mice” value (HBV [3]; day 21, 10 mg/kg) was 3.75 IU/mL and the “HBsAg content in the plasma of the mice” value (HBV [3]; day 21, 30 mg/kg) was 3.46 IU/mL. For the same molecule, the “HBsAg content in the plasma of the mice” value (HBV [3]; day 25, 3 mg/kg) was 3.76 IU/mL, the “HBsAg content in the plasma of the mice” value (HBV [3]; day 25, 10 mg/kg) was 3.83 IU/mL and the “HBsAg content in the plasma of the mice” value (HBV [3]; day 25, 30 mg/kg) was 3.37 IU/mL. The “HBsAg content in the plasma of the mice” value (HBV [3]; day 28, 3 mg/kg) was 3.96 IU/mL, the “HBsAg content in the plasma of the mice” value (HBV [3]; day 28, 10 mg/kg) was 3.87 IU/mL and the “HBsAg content in the plasma of the mice” value (HBV [3]; day 28, 30 mg/kg) was 3.53 IU/mL. For the same molecule, the “HBsAg content in the plasma of the mice” value (HBV [3]; day −1, 3 mg/kg) was 4.54 IU/mL, the “HBsAg content in the plasma of the mice” value (HBV [3]; day −1, 10 mg/kg) was 4.51 IU/mL and the “HBsAg content in the plasma of the mice” value (HBV [3]; day −1, 30 mg/kg) was 4.48 IU/mL. For the same molecule, the “tolerance of the mice during the course of treatment” value (HBV [3]; once a day for four weeks) was “good tolerance”, the “changes of the body weight of the mice” value (HBV [3]; once a day for four weeks, FIG. 3) was “better than RG7834” and the “histopathological changes associated with the test compound” value ([4]; high dose group (1000 mg/kg)) was “little or mild decrease of white pulp lymphocytes in the spleen”. For the same molecule, the “histopathological changes associated with the test compound” value ([4]; medium and low dose groups (300 and 100 mg/kg), heart, liver and lung examined) was “no histopathological changes associated with the test compound were observed”.
